Test results reported in patent publication US7884186B2, “Isotopically labeled trapping agent and method for identifying reactive metabolites” (Janssen Pharmaceutica NV, priority 2006, dated 2011).

test system: human liver microsomal preparations (cytochrome P450 enzyme preparations); experiment: Reactive metabolite trapping with compound of formula (I) / (I-IS) in human liver microsomal incubation, neutral loss (129 Da) LC-MS/MS; assay type: in vitro ADME; conditions: 10 μM test compound, 1 mg/ml microsomal proteins, 1 mM 1:1 mixture of formula (I) and (I-IS), NADPH generating system, 60 min, 37° C.; neutral loss of 129 Da, doublet mass difference 8 Da
Experimental: All microsomal incubations described herein were performed at 37° C. in a water bath. The test compound was mixed with human liver microsomal preparations (cytochrome P450 enzyme preparations) in 50 mM potassium phosphate buffer (pH 7.4) supplemented with the non-isotopically labeled compound of formula (I) and the isotopically labeled compound of formula (I-S) that were pre-mixed at an equal molar ratio of 1:1. The resulting mixtures were pre-warmed at 37° C. for 5 min. To the reaction mixtures was then added the co-factor—NADPH generating system—(to initiate the reaction) to yield a final volume of 1000 μl.
The resulting reaction mixtures contained 10 μM test compounds, 1 mg/ml microsomal proteins, 1 mM mixture of non-isotopically labeled compound of formula (I) and isotopically labeled compound of formula (I-IS), 1.3 mM NADP^+, 3.3 mM glucose-6-phosphate, 0.4 U/ml glucose-6-phosphate dehydrogenase, 3.3 mM magnesium chloride.
After a 60 min incubation, the reactions were terminated by the addition of 150 μl of trichloroacetic acid (10%). The resulting mixtures were centrifuged at 10,000 g for 15 min at 4° C. to pellet the precipitated protein, and the supernatants were subjected to solid-phase extractions. Alternatively, the reaction mixtures were subjected to liquid-liquid extractions to recover the metabolites from supernatants.
MS analyses were performed on a Micromass (Manchester, UK) Quattro Micro triple quadrupole mass spectrometer. The ESI ion source was operated in the positive ion mode, and experimental parameters were set as follows: capillary voltage 3.2 kV, source temperature 120° C., desolvation temperature 300° C., sample cone voltage 26 V. Mass spectra collected in the neutral loss scanning mode were obtained by scanning over the range m/z 400-800 in 2.0 s.
For complete profiling of reactive metabolites, samples were first subjected to chromatographic separations with an Agilent 1100 HPLC system with an auto-sampler (Agilent Technologies, Palo Alto, Calif.), and eluents were introduced to the Quattro Micro triple quadrupole mass spectrometer operated in the neutral loss scanning mode. An Agilent Zorbax SB C18 column (2.1×50 mm) was used for the chromatographic separation. […] At 7 min, the column was flushed with 95% acetonitrile for 2 min before re-equilibration at initial conditions. LC-MS/MS analyses were carried out on 10-μl aliquots of cleaned samples. Data were processed using the Masslynx version 4.0 software from Micromass. After a positive peak was detected, MS/MS spectra were subsequently obtained to further confirm the structure of the adduct(s). To acquire CID (Collision Induced Dissociation) spectra, the mass spectrometer was operated in the multiple reaction monitoring (MRM) mode.

| Structure (SMILES) | components (reactive metabolite adducts) showing the characteristic isotopic doublet in the neutral loss scan |
| --- | --- |
| c1coc(-c2cccs2)c1 [2-(2-Thienyl)-furan] | showed the characteristic isotopic doublet |
| Cc1ccco1 [2-Methylfuran] | Two isomeric adducts |
| O=C(O)Cc1ccccc1Nc1c(Cl)cccc1Cl [Diclofenac] | two of the components showed the expected isotope doublet |
| c1ccoc1 [Furan] | displayed the characteristic isotopic doublet |
| Cc1coc2c1CCC(C)C2 (stereo not drawn) [Menthofuran] | One component |
| COc1ccc2[nH]c([S+]([O-])Cc3ncc(C)c(OC)c3C)nc2c1 (stereo not drawn) [Omeprazole] | Only one component |
